Experimental data from ChEMBL document CHEMBL2413072, “Synthesis and in vitro anticancer studies of novel C-2 arylidene congeners of lantadenes” (2013).

Experiments:
Format in all cases: functional
[1] = system: SF-268; test: Growth inhibition of human SF268 cells by sulforhodamine B assay
[2] = system: HCT-116; test: Growth inhibition of human HCT116 cells by sulforhodamine B assay
[3] = Growth inhibition of human HCC2998 cells by sulforhodamine B assay
[4] = system: HOP-62; test: Growth inhibition of human HOP62 cells by sulforhodamine B assay
[5] = system: IGROV-1; test: Growth inhibition of human IGROV1 cells assessed as cell growth at 10^-8 M by sulforhodamine B assay; conditions: read-out: Activity
[6] = system: SK-MEL-5; test: Growth inhibition of human SK-MEL-5 cells assessed as cell growth at 10^-8 M by sulforhodamine B assay; conditions: read-out: Activity
[7] = system: NCI-H522; test: Growth inhibition of human NCI-H522 cells assessed as cell growth at 10^-8 M by sulforhodamine B assay; conditions: read-out: Activity
[8] = system: NCI-H23; test: Growth inhibition of human NCI-H23 cells assessed as cell growth at 10^-8 M by sulforhodamine B assay; conditions: read-out: Activity
[9] = system: HL-60(TB); test: Growth inhibition of human HL-60(TB) cells assessed as cell growth at 10^-8 M by sulforhodamine B assay; conditions: read-out: Activity
[10] = system: UO-31; test: Growth inhibition of human UO31 cells by sulforhodamine B assay
[11] = system: OVCAR-3; test: Growth inhibition of human OVCAR3 cells by sulforhodamine B assay
[12] = system: UACC-62; test: Growth inhibition of human UACC62 cells by sulforhodamine B assay
[13] = system: IGROV-1; test: Growth inhibition of human IGROV1 cells by sulforhodamine B assay
[14] = system: LOX IMVI; test: Growth inhibition of human LOXIMVI cells by sulforhodamine B assay
[15] = system: SF-539; test: Growth inhibition of human SF539 cells by sulforhodamine B assay
[16] = system: SF-295; test: Growth inhibition of human SF295 cells by sulforhodamine B assay
[17] = system: MDA-MB-231; test: Growth inhibition of human MDA-MB-231 cells assessed as cell growth at 10^-4 M by sulforhodamine B assay; conditions: read-out: Activity
[18] = system: PC-3; test: Growth inhibition of human PC3 cells assessed as cell growth at 10^-4 M by sulforhodamine B assay; conditions: read-out: Activity
[19] = system: RXF 393; test: Growth inhibition of human RXF393 cells assessed as cell growth at 10^-4 M by sulforhodamine B assay; conditions: read-out: Activity
[20] = system: ACHN; test: Growth inhibition of human ACHN cells assessed as cell growth at 10^-4 M by sulforhodamine B assay; conditions: read-out: Activity
[21] = system: IGROV-1; test: Growth inhibition of human IGROV1 cells assessed as cell growth at 10^-4 M by sulforhodamine B assay; conditions: read-out: Activity
[22] = system: SK-MEL-2; test: Growth inhibition of human SK-MEL-2 cells assessed as cell growth at 10^-4 M by sulforhodamine B assay; conditions: read-out: Activity
[23] = system: SNB-19; test: Growth inhibition of human SNB19 cells assessed as cell growth at 10^-4 M by sulforhodamine B assay; conditions: read-out: Activity
[24] = system: CAKI-1; test: Growth inhibition of human CAKI-1 cells assessed as cell growth at 10^-6 M by sulforhodamine B assay; conditions: read-out: Activity
[25] = system: UACC-62; test: Growth inhibition of human UACC62 cells assessed as cell growth at 10^-6 M by sulforhodamine B assay; conditions: read-out: Activity
[26] = system: SK-MEL-5; test: Growth inhibition of human SK-MEL-5 cells assessed as cell growth at 10^-6 M by sulforhodamine B assay; conditions: read-out: Activity
[27] = system: M14; test: Growth inhibition of human M14 cells assessed as cell growth at 10^-6 M by sulforhodamine B assay; conditions: read-out: Activity
[28] = system: SNB-75; test: Growth inhibition of human SNB75 cells assessed as cell growth at 10^-6 M by sulforhodamine B assay; conditions: read-out: Activity
[29] = system: COLO 205; test: Growth inhibition of human COLO205 cells assessed as cell growth at 10^-6 M by sulforhodamine B assay; conditions: read-out: Activity
[30] = system: NCI-H226; test: Growth inhibition of human NCI-H226 cells assessed as cell growth at 10^-6 M by sulforhodamine B assay; conditions: read-out: Activity
[31] = system: HOP-62; test: Growth inhibition of human HOP62 cells assessed as cell growth at 10^-6 M by sulforhodamine B assay; conditions: read-out: Activity
[32] = Growth inhibition of human Hs 578T cells assessed as cell growth at 10^-7 M by sulforhodamine B assay; conditions: read-out: Activity
[33] = system: SN12C; test: Growth inhibition of human SN12C cells assessed as cell growth at 10^-7 M by sulforhodamine B assay; conditions: read-out: Activity
[34] = system: CAKI-1; test: Growth inhibition of human CAKI-1 cells assessed as cell growth at 10^-7 M by sulforhodamine B assay; conditions: read-out: Activity
[35] = system: A549; test: Growth inhibition of human A549/ATCC cells assessed as cell growth at 10^-7 M by sulforhodamine B assay; conditions: read-out: Activity
[36] = system: UO-31; test: Growth inhibition of human UO31 cells assessed as cell growth at 10^-8 M by sulforhodamine B assay; conditions: read-out: Activity
[37] = system: ACHN; test: Growth inhibition of human ACHN cells assessed as cell growth at 10^-8 M by sulforhodamine B assay; conditions: read-out: Activity
[38] = read-out: LC50 (the source's name)
[39] = read-out: pLC50 (the source's name) (converted)

C/C=C(/C)C(=O)O[C@@H]1CC(C)(C)C[C@H]2C3=CC[C@@H]4[C@@]5(C)CCC(=O)C(C)(C)[C@@H]5CC[C@@]4(C)[C@]3(C)CC[C@@]12C(=O)O [LANTADENE A]
GI50 ([1]; read-out: GI50): 5.96 µM
LC50 ([1]; read-out: LC50): > 100 µM
TGI ([1]; read-out: TGI): > 100 µM
GI50 ([1]; read-out: pGI50 (converted)): 6.03 µM
LC50 ([1]; read-out: pLC50 (converted)): > 100 µM
TGI ([1]; read-out: pTGI (converted)): > 100 µM
GI50 ([2]; read-out: GI50): 3.62 µM
LC50 ([2]; read-out: LC50): > 100 µM
TGI ([2]; read-out: TGI): > 100 µM
GI50 ([2]; read-out: pGI50 (converted)): 3.63 µM
LC50 ([2]; read-out: pLC50 (converted)): > 100 µM
TGI ([2]; read-out: pTGI (converted)): > 100 µM
GI50 ([3]; HCC 2998, read-out: GI50): 3.33 µM
CC50 ([3]; HCC 2998, read-out: LC50 (the source's name)): > 100 µM
TGI ([3]; HCC 2998, read-out: TGI): > 100 µM
GI50 ([3]; HCC 2998, read-out: pGI50 (converted)): 3.31 µM
CC50 ([3]; HCC 2998, read-out: pLC50 (the source's name) (converted)): > 100 µM
TGI ([3]; HCC 2998, read-out: pTGI (converted)): > 100 µM
GI50 ([4]; read-out: GI50): 20.6 µM
LC50 (concentration killing 50% of cells) ([4]; read-out: LC50): > 100 µM
TGI ([4]; read-out: TGI): > 100 µM
GI50 ([4]; read-out: pGI50 (converted)): 20.4 µM
LC50 (concentration killing 50% of cells) ([4]; read-out: pLC50 (converted)): > 100 µM
TGI ([4]; read-out: pTGI (converted)): > 100 µM
growth at 0.01 µM [5]: 108%
growth at 0.01 µM [6]: 90%
growth at 0.01 µM [7]: 109%
growth at 0.01 µM [8]: 100%
growth at 0.01 µM [9]: 100%
GI50 ([10]; read-out: GI50): 3.44 µM
CC50 [10, 38]: > 100 µM
TGI ([10]; read-out: TGI): > 100 µM
GI50 ([10]; read-out: pGI50 (converted)): 3.47 µM
CC50 [10, 39]: > 100 µM
TGI ([10]; read-out: pTGI (converted)): > 100 µM
GI50 ([11]; read-out: GI50): 5.89 µM
CC50 [11, 38]: > 100 µM
TGI ([11]; read-out: TGI): > 100 µM
GI50 ([11]; read-out: pGI50 (converted)): 5.89 µM
CC50 [11, 39]: > 100 µM
TGI ([11]; read-out: pTGI (converted)): > 100 µM
GI50 ([12]; read-out: GI50): 1.73 µM
CC50 [12, 38]: 43 µM
TGI ([12]; read-out: TGI): 6.56 µM
GI50 ([12]; read-out: pGI50 (converted)): 1.74 µM
CC50 [12, 39]: 42.7 µM
TGI ([12]; read-out: pTGI (converted)): 6.61 µM
GI50 ([13]; read-out: GI50): 6.75 µM
CC50 [13, 38]: > 100 µM
TGI ([13]; read-out: TGI): > 100 µM
GI50 ([13]; read-out: pGI50 (converted)): 6.76 µM
CC50 [13, 39]: > 100 µM
TGI ([13]; read-out: pTGI (converted)): > 100 µM
GI50 ([14]; read-out: GI50): 7.8 µM
CC50 [14, 38]: > 100 µM
TGI ([14]; read-out: TGI): > 100 µM
GI50 ([14]; read-out: pGI50 (converted)): 7.76 µM
CC50 [14, 39]: > 100 µM
TGI ([14]; read-out: pTGI (converted)): > 100 µM
GI50 ([15]; read-out: GI50): 6.51 µM
CC50 [15, 38]: > 100 µM
TGI ([15]; read-out: TGI): > 100 µM
GI50 ([15]; read-out: pGI50 (converted)): 6.46 µM
CC50 [15, 39]: > 100 µM
TGI ([15]; read-out: pTGI (converted)): > 100 µM
GI50 ([16]; read-out: GI50): 2.77 µM
CC50 [16, 38]: > 100 µM
TGI ([16]; read-out: TGI): 15.4 µM
GI50 ([16]; read-out: pGI50 (converted)): 2.75 µM
CC50 [16, 39]: > 100 µM
TGI ([16]; read-out: pTGI (converted)): 15.5 µM
growth at 100 µM [17]: -26%
growth at 100 µM [18]: 13%
growth at 100 µM [19]: -15%
growth at 100 µM [20]: 16%
growth at 100 µM [21]: 30%
growth at 100 µM [22]: -35%
growth at 100 µM [23]: 23%
growth at 1 µM [24]: 88%
growth at 1 µM [25]: 70%
growth at 1 µM [26]: 58%
growth at 1 µM [27]: 80%
growth at 1 µM [28]: 88%
growth at 1 µM [29]: 101%
growth at 1 µM [30]: 87%
growth at 1 µM [31]: 98%
growth at 0.1 µM [32]: 93%
growth at 0.1 µM [33]: 95%
growth at 0.1 µM [34]: 94%
growth at 0.1 µM [35]: 90%
growth at 0.01 µM [36]: 96%
growth at 0.01 µM [37]: 110%
